Assay results published in PMC11295173 (Journal of the American Chemical Society, 2024).
Read-outs that look alike come from different tables or passages of the source. Ends that are not written are not given here.

Tests used:
Circular dichroism (CD) = assay type: physicochemical; details: bandwidth of 1 nm; buffer spectrum subtracted as blank
[1] = tested on: RBDs from the S-proteins of the five VOCs; experiment: Differential sensing of RBDs with S1-S20 (fluorescence, PCA, loading plots); assay type: binding, SARS-CoV-2; details: PCA and loading plots
RBDs = assay type: binding, SARS-CoV-2; details: peptide-GO complexes; RBDs 0 to 12 μg mL-1; PBS (0.01 M, pH 7.40); excitation 520 nm
[2] = assay type: binding; design: unit not given here; details: GO (1–15 µg mL−1); peptide probe 2 × 10−6 M; PBS (0.01 M, pH 7.4), 2 min, excitation 520 nm; double reciprocal linear fitting
[3] = assay type: binding; design: unit not given here; details: AuNPs (1–20 µg mL−1); peptide probe 2 × 10−6 M; PBS (0.01 M, pH 7.4), 2 min, excitation 520 nm; double reciprocal linear fitting
[4] = assay type: binding; design: unit not given here; details: 2D MnO2 (1–12 µg mL−1); peptide probe 2 × 10−6 M; PBS (0.01 M, pH 7.4), 2 min, excitation 520 nm; double reciprocal linear fitting
[5] = assay type: binding; design: unit not given here; details: CNTs (1–8 µg mL−1); peptide probe 2 × 10−6 M; PBS (0.01 M, pH 7.4), 2 min, excitation 520 nm; double reciprocal linear fitting

Row | Substance | secondary structure (CD spectra) (Circular dichroism (CD)) | contribution of peptide probes for VOC classification (order, loading plots) [1] | sensitivity of the peptide probes for the RBDs (order, from detection limits) (RBDs) | binding constant (Ka) [2] | binding constant (Ka) [3] | binding constant (Ka) [4] | binding constant (Ka) [5]
1 | GI7: heptamer (residues 352–358) from the β3 and β4-sheet of hACE2 (GKGDFRI; UniProt Q9BYF1 352-358, looked up, fragment) | no typical signature of secondary structures |  |  |  |  |  | 
2 | LL7: heptamer (residues 79–85) from α2-helix of hACE2 (LAQMYPL; UniProt Q9BYF1 79-85, looked up, fragment) | no typical signature of secondary structures |  |  |  |  |  | 
3 | QQ19: continuous 19-mer (amino-acid residues 24–42) truncated from the α1-helix of hACE2 (QAKTFLDKFNHEAEDLFYQ; UniProt Q9BYF1 24-42, looked up, fragment) | two minima at 202 and 222 nm, characteristic of α-helices |  |  |  |  |  | 
4 | TI7: fluorescently tagged (5-TAMRA) peptide probe, presumably of GI7 (GKGDFRI; also: 5-TAMRA label, site not given here; UniProt Q9BYF1 352-358, looked up, fragment) |  | TI26 > TQ26 > TQ19 > TL7 > TI7 | TI26 > TQ26 > TQ19 > TL7 > TI7 | 0.0273 | 0.0153 | 0.1024 | 0.1462
5 | TL7: fluorescently tagged (5-TAMRA) peptide probe, presumably of LL7 (LAQMYPL; also: 5-TAMRA label, site not given here; UniProt Q9BYF1 79-85, looked up, fragment) |  | TI26 > TQ26 > TQ19 > TL7 > TI7 | TI26 > TQ26 > TQ19 > TL7 > TI7 | 0.0319 | 0.0249 | 0.0096 | 0.0776
6 | TQ19: fluorescently tagged (5-TAMRA) peptide probe, presumably of QQ19 (QAKTFLDKFNHEAEDLFYQ; also: 5-TAMRA label, site not given here; UniProt Q9BYF1 24-42, looked up, fragment) |  | TI26 > TQ26 > TQ19 > TL7 > TI7 | TI26 > TQ26 > TQ19 > TL7 > TI7 |  |  |  | 
